Experiments:
[1] = test system: glutathione reductase (GR) gene expression in PC-3 cells; experiment: Oxidative stress and antioxidant defense qPCR-array, PC-3; format: cell-based, human; details: PC-3, 12.5 µM, 18 h, relative to control cells
Method: LNCaP and PC-3 cells were treated with subditine (1) (12.5 µM) for 18 h. RNA was extracted from PC-3 or LNCaP cells using RNeasy plus mini kit (Qiagen). 1 µg of RNA was reverse transcribed into cDNA using the RT2 first strand kit (SA Biosciences, Qiagen).cDNA was mixed with RT2 Real Time™ SYBR Green/fluorescein PCR master-mix and loaded into each 96 wells of the Human Oxidative Stress and Antioxidant Defense qPCR array according to the manufacturer’s protocol (SA Biosciences, Qiagen). Briefly, a total volume of 25 µl of PCR mixture, which included 12.5 µl of mastermix, 11.5 µl of double distilled water, and 1 µl of cDNA was loaded into each of the 96wells. qPCR were done using StepOne PLUS real-time PCR machine (Applied Biosystems). PCR amplification was conducted at 95°C for 10 min, followed by 40 cycles of 95°C for 15 sec and 60°C for 1 min. The mRNA expression for each gene was normalized using the average expression of five housekeeping genes:
β-actin (ACTB), β-2-microglobulin (β2M), hypoxanthine phosphoribosyltransferase 1 (HPRT1), ribosomal protein L13a (RPL13A) and glyceraldehyde-3-phosphate dehydrogenase (GAPDH). The ΔΔCt method was used for data analysis. Fold changes were calculated for each gene as the difference in gene expression between subditine (1) or non-treated control using the RT Profiler qPCR-array data analysis software.

[2] = test system: LNCaP human prostate cancer cells; experiment: MTT cell proliferation assay, LNCaP; format: cell-based
Method: Human prostate normal cell line (RWPE-1) and human prostate cancer cell lines; LNCaP and PC-3, were purchased from the American Type Culture Collection (ATCC, Manassas, Virginia, USA). LNCaP and PC-3 cells were grown in Roswell Park Memorial Institute medium (RPMI) supplemented with 10% heat-inactivated fetal bovine serum (FBS, Sigma-Aldrich, St. Louis, MO), 1% penicillin and streptomycin. RWPE-1 cells were maintained in Keratinocyte Serum Free Medium (K-SFM, ATCC) supplemented with bovine pituitary extract (BPE) and human recombinant epidermal growth factor (EGF). Mediums were supplemented with 10% heat-inactivated fetal calf serum (Sigma.), 100 U/ml penicillin and […] streptomycin (Flowlab, Sydney, Australia). All cells were maintained in a humidified atmosphere of 5% CO2 in air at 37°C incubator.
The anti-proliferative activity was evaluated by performing MTT assays as previously described with minor modifications. Briefly, cells were seeded 24 hours prior to treatment in a 96-well plate at 5×10^4 cells/well in order to obtain 70% to 80% confluent cultures. The compounds were dissolved in DMSO (Sigma Chemical Co., St. Louis, Missouri, USA) followed by a 2×serial dilution for 10 points ranged from 0.825 µM to 100 µM. The 96-well plate was incubated for 24 hours at 37°C in a humidified atmosphere with 5% CO2. At the end of incubation, 50 µl of MTT solution (2 mg/ml; Sigma) was added to each well. The plate was then incubated for 4 hours. All medium was removed and the purple formazan crystal formed at the bottom of the wells was dissolved with 200 µl DMSO for 20 minutes. The absorbance at 570 nm was read on a spectrophotometric plate reader (Hidex). The proportion of surviving cells was calculated as: […]
Dose-response curves were constructed to obtain the IC50 values. Experimental data were derived from 3 independent experiments. The selectivity index was obtained by mean IC50 RWPE-1/mean IC50 of LNCaP or PC-3.

[3] = test system: caspase-9 in LNCaP cells; experiment: Caspase-Glo 9 bioluminescent assay, LNCaP; format: cell-based, human
Method: A time-dependent study of caspase-3/7, -8, and -9 activities was performed in triplicates using assay kits Caspase-Glo 3/7, 8, and 9 (Promega Corp.,Madison,WI, USA) on white 96-well microplate as described previously. A total of 10,000 cells per well was seeded and treated with […] of subditine (1) for 6, 12, 18, 24, and 30 hours. Then, 100 µL of the caspase-Glo reagent was added, incubated at room temperature for 30 minutes and measured using Tecan Infinite 200 Pro (Tecan, Mannedorf, Swizerland) microplate reader.

[4] = test system: Bcl-xL expression in PC-3 cells; experiment: Western blotting, Bcl-xL in PC-3; format: cell-based, human; details: 24 h
Method: To determine protein expression, 1×10^6 cells/mL were seeded and treated with subditine (1) or paclitaxel for 24 h. Whole cell extracts were prepared as previously described. Briefly, cells were collected, lysed and resolved on 10% SDS-polyacrylamide gels. After electrophoresis, the proteins were transferred to PVDF membranes (Millipore), blocked with 5% nonfat dry milk in PBS-T (0.05% Tween 20) for 1 hour at room temperature. Membranes were probed with primary rabbit anti-Bcl-2, Bcl-xL or p53 antibodies followed by horseradish peroxidase (HRP)-conjugated secondary anti-rabbit antibody (Cell Signaling Technology Inc., CA, USA). Membranes were stripped and reprobed with mouse anti-β-actin antibody as loading control (Santa Cruz Biotechnology Inc.). Protein-antibody complexes were detected with Amersham ECL prime Western blotting detection reagent (GE Healthcare, USA).

[5] = test system: LNCaP cells; experiment: Hoechst 33342 / phalloidin staining, LNCaP; format: cell-based, human; details: 24 hours
Method: (§1) Cytoskeletal and nuclear morphological changes of LNCaP and PC-3 cells were examined by phalloidin (detects F-actin) and Hoechst 33342 staining. […] At concentration 12.5 µM and 25 µM, nuclear condensation and fragmentation were detected at 24 hours after subditine (1) treatment (Figure 4).
(§2) Figure 3 Subditine (1) induced cytoskeletal rearrangement at the peripheral. LNCaP and PC-3 cells were treated with subditine (1) at various concentrations for 24 hours. Cells were fixed and stained with Hoechst (blue) and phalloidin (red) dye which stained nucleus and polymerized actin (F-actin), respectively. Bar chart showing average fluorescent intensity of phalloidin (mean ± S.D.; *p<0.05).
(§3) Figure 4 Subditine (1) treatment leads to nuclear DNA fragmentation. LNCaP and PC-3 cells were treated with subditine (1) (12.5 µM and 25 µM) for 24 h. Cells were then fixed and stained with Hoescht 33342 (blue). Red circles indicate DNA shrinkage or fragmentation. Images were captured using Cellomic arrayscan system.

[6] = test system: PC-3 cells; experiment: Hoechst 33342 / phalloidin staining, PC-3; format: cell-based, human; details: PC-3, 12.5 µM and 25 µM, 24 hours, P<0.05
Method: as §1, §2, §3

- IC50 ([2]; Homo sapiens, MTT, 24 hours, LNCaP, mean ± S.D.): 12.2 ± 0.19 µM
SMILES: Cc1ncc2c(=O)n3c(cc2c1C=O)-c1[nH]c2ccccc2c1CC3 [Subditine, subditine]
- glutathione reductase (GR) gene expression fold change [1]: > 20 fold
- folds more potent against LNCaP than normal prostate cells RWPE-1 ([2]; LNCaP vs RWPE-1): 2.5 folds
- selectivity index (SI) LNCaP ([2]; mean IC50 RWPE-1/mean IC50 of LNCaP): 2.49
- caspase-9 activity ([3]; after 12 and 24 hours exposure, 12.25 µM): significant increase
- time of highest caspase-9 activity ([3]; time points 6-30 hours): 24 h
- Bcl-xL protein expression ([4]; PC-3, 12.5 µM, compared to control): no significant change
- Bcl-xL protein expression ([4]; PC-3, 25 and 50 µM): drastically down-regulated
- nuclear intensity (apoptotic chromatin changes) ([5]; 12.5 µM and 25 µM, P<0.05): significantly increased
- phalloidin (F-actin) intensity ([5]; various concentrations): Dose-dependent increased
- nuclear intensity (apoptotic chromatin changes) [6]: significantly increased
